Measurements: US6908935B2, “Calcium receptor modulating agents” (Amgen Inc., priority 2002, dated 2005)

Molecular target: T1, human parathyroid cell Ca^2+ receptor (hPCaR) (Homo sapiens, UniProt P41180)
T1 construct: expressed in transfected cells
T1 sequence (P41180 20-1078): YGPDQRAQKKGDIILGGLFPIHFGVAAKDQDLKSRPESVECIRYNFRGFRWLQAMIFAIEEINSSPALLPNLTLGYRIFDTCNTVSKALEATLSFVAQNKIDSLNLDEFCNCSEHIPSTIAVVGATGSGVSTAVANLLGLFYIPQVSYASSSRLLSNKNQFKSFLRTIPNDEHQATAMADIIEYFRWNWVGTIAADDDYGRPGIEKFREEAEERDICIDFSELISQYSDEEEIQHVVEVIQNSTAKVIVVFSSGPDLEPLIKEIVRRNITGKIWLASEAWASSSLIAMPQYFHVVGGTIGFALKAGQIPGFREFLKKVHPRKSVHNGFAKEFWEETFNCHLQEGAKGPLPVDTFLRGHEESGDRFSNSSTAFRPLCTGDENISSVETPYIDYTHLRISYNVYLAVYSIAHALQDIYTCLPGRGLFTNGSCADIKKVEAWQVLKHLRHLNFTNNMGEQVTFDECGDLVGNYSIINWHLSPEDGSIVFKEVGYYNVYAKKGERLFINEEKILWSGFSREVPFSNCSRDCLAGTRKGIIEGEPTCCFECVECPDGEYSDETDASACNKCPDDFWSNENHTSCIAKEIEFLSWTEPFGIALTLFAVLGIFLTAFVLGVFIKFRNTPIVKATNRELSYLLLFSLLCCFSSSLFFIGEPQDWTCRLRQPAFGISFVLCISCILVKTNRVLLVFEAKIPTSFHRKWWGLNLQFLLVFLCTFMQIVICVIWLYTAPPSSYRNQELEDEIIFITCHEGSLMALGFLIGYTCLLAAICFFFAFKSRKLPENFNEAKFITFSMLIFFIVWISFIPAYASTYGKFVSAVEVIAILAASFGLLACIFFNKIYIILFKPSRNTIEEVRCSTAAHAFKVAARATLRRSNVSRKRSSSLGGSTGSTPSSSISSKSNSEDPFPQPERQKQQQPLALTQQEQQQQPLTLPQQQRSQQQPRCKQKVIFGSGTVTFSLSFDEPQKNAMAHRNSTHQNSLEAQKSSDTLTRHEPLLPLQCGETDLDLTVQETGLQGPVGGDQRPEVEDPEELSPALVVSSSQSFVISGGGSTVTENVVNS
Experiment: [Ca2+]i measurement with fluo-3 in HEK 293 4.0-7 cells stably transfected with hPCaR
Type: cell-based
Conditions: fluo-3 fluorescence (485/530 nm), effect on [Ca^2+]i
Procedure, shortened: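 Cytosolic [Ca2+] was read as fluo-3 fluorescence (ex 485/em 530 nm) after compound addition to washed cells. Cells were hPCaR-transfected HEK 293 clone 7, dye-loaded 30 min at 37 °C with 2 μM fluo-3 acetoxymethyl ester in HEPES-buffered saline pH 7.45 containing 1 mM CaCl2 and 0.5% BSA.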

EC50, ≤ 10 µM:
COc1ccnc(-c2cc(CN[C@H](C)c3ccccc3)ccc2OC)c1 [(1R)-N-((4-(methyloxy)-3-(4-(methyloxy)-2-pyridinyl)phenyl)methyl)-1-phenylethanamine]
COc1ccc([C@@H](C)NCc2ccc(OC)c(-c3ccc4[nH]ccc4c3)c2)cc1 [(1R)-N-((3-(1H-indol-5-yl)-4-(methyloxy)phenyl)methyl)-1-(4-(methyloxy)phenyl)ethanamine]
COc1ccc(CN[C@H](C)c2cccc3ccccc23)cc1-c1ccc2c(c1)OC(F)(F)O2 [(1R)-N-((3-(2,2-difluoro-1,3-benzodioxol-5-yl)-4-(methyloxy)phenyl)methyl)-1-(1-naphthalenyl)ethanamine]
COc1cccc([C@@H](C)NCc2ccc(OC)c(-c3csc(N4CCCCC4)n3)c2)c1
CC(=O)Nc1ccc(-c2cccc(CN[C@H](C)c3ccccc3)c2)cn1 [Example 250, N-(5-(3-((((1R)-1-phenylethyl)amino)methyl)phenyl)-2-pyridinyl)acetamide]
COc1ccc(CN[C@H](C)c2cccc(Cl)c2)cc1-c1ccccc1 [(1R)-1-(3-chlorophenyl)-N-((6-(methyloxy)-1,1′-biphenyl-3-yl)methyl)ethanamine]
COc1cccc([C@@H](C)NCc2ccc(OC)c(-c3nccs3)c2)c1 [(1R)-1-(3-(methyloxy)phenyl)-N-((4-(methyloxy)-3-(1,3-thiazol-2-yl)phenyl)methyl)ethanamine]
COc1ccc([C@@H](C)NCc2ccc(OC)c(-c3ccc(F)cc3)c2)cc1 [(1R)-N-((4′-fluoro-6-(methyloxy)-1,1′-biphenyl-3-yl)methyl)-1-(4-(methyloxy)phenyl)ethanamine]
COc1ccc(CN[C@H](C)c2ccccc2)cc1-c1ccc2c(cnn2C)c1 [(1R)-N-((3-(1-methyl-1H-indazol-5-yl)-4-(methyloxy)phenyl)methyl)-1-phenylethanamine]
C[C@@H](NCc1cccc(-c2ccc(NC(=O)CCC(=O)O)nc2)c1)c1ccccc1 [4-oxo-4-((5-(3-((((1R)-1-phenylethyl)amino)methyl)phenyl)-2-pyridinyl)amino)butanoic acid]
COc1cccc([C@@H](C)NCc2ccc(Cl)c(-c3cccnc3)c2)c1 [(1R)-N-((4-chloro-3-(3-pyridinyl)phenyl)methyl)-1-(3-(methyloxy)phenyl)ethanamine]
COc1cccc([C@@H](C)NCc2ccc(OC)c(-c3ccoc3)c2)c1 [(1R)-N-((3-(3-furanyl)-4-(methyloxy)phenyl)methyl)-1-(3-(methyloxy)phenyl)ethanamine]
COc1ccc(CN[C@H](C)c2cccc3ccccc23)cc1-c1ccc(OCC(F)(F)F)nc1 [(1R)-N-((4-(methyloxy)-3-(6-((2,2,2-trifluoroethyl)oxy)-3-pyridinyl)phenyl)methyl)-1-(1-naphthalenyl)ethanamine]
C[C@@H](NCc1ccc(I)c(-c2ccc(C(F)(F)F)cc2)c1)c1cccc2ccccc12 [(1R)-N-((6-iodo-4′-(trifluoromethyl)-1,1′-biphenyl-3-yl)methyl)-1-(1-naphthalenyl)ethanamine]
COc1ccc([C@@H](C)NCc2cccc(-c3ccc4c(c3)OCO4)c2)cc1 [(1R)-N-((3-(1,3-benzodioxol-5-yl)phenyl)methyl)-1-(4-(methyloxy)phenyl)ethanamine]
COc1cccc([C@@H](C)NCc2cccc(-c3ccccn3)c2)c1 [(1R)-1-(3-(methyloxy)phenyl)-N-((3-(2-pyridinyl)phenyl)methyl)ethanamine]
COc1ccc(CN[C@H](C)c2ccccc2)cc1-c1ccc2c(ccn2CC2CC2)c1 [(1R)-N-((3-(1-(cyclopropylmethyl)-1H-indol-5-yl)-4-(methyloxy)phenyl)methyl)-1-phenylethanamine]
COc1ccc(CN[C@H](C)c2ccc3ccccc3c2)cc1-c1ccc2[nH]ccc2c1 [(1R)-N-((3-(1H-indol-5-yl)-4-(methyloxy)phenyl)methyl)-1-(2-naphthalenyl)ethanamine]
COc1cccc([C@@H](C)NCc2cccc(-c3nc(C)no3)c2)c1 [(1R)-N-((3-(3-methyl-1,2,4-oxadiazol-5-yl)phenyl)methyl)-1-(3-(methyloxy)phenyl)ethanamine]
COc1ccc(CN[C@H](C)c2cccc(F)c2)cc1-c1ccc(S(C)(=O)=O)cc1 [(1R)-1-(3-fluorophenyl)-N-((6-(methyloxy)-4′-(methylsulfonyl)-1,1′-biphenyl-3-yl)methyl)ethanamine]
COCCOc1ccc(-c2cc(CN[C@H](C)c3ccccc3)ccc2OC)cn1 [(1R)-N-((4-(methyloxy)-3-(6-((2-(methyloxy)ethyl)oxy)-3-pyridinyl)phenyl)methyl)-1-phenylethanamine]
C[C@@H](NCc1cccc(-c2ccoc2)c1)c1ccccc1 [Example 226, (1R)-N-((3-(3-furanyl)phenyl)methyl)-1-phenylethanamine]
COc1ccc(CN[C@H](C)c2cccc3ccccc23)cc1-c1ccc(OC(F)(F)F)cc1 [(1R)-N-((6-(methyloxy)-4′-((trifluoromethyl)oxy)-1,1′-biphenyl-3-yl)methyl)-1-(1-naphthalenyl)ethanamine]
COc1ccc([C@@H](C)NCc2cccc(-c3ccc(OC)nn3)c2)cc1 [(1R)-1-(4-(methyloxy)phenyl)-N-((3-(6-(methyloxy)-3-pyridazinyl)phenyl)methyl)ethanamine]
CCN(CC)CCCOc1ccc(-c2cc(CN[C@H](C)c3cccc4ccccc34)ccc2OC)cn1 [N-((3-(6-((3-(diethylamino)propyl)oxy)-3-pyridinyl)-4-(methyloxy)phenyl)methyl)-N-((1R)-1-(1-naphthalenyl)ethyl)amine]
COc1ccc(CN[C@H](C)c2ccccc2)cc1-c1cccnc1NCCCN1CCOCC1 [3-(2-(methyloxy)-5-((((1R)-1-phenylethyl)amino)methyl)phenyl)-N-(3-(4-morpholinyl)propyl)-2-pyridinamine]
COc1ccc(-c2cc(CN[C@H](C)c3ccccc3)ccc2OC)nc1 [(1R)-N-((4-(methyloxy)-3-(5-(methyloxy)-2-pyridinyl)phenyl)methyl)-1-phenylethanamine]
COc1ccc(CN[C@H](C)c2ccccc2)cc1-c1ccc(Cl)cc1 [(1R)-N-((4′-chloro-6-(methyloxy)-1,1′-biphenyl-3-yl)methyl)-1-phenylethanamine]
COc1ccc(-c2cccc(CN[C@H](C)c3cccc4ccccc34)c2)nn1 [(1R)-N-((3-(6-(methyloxy)-3-pyridazinyl)phenyl)methyl)-1-(1-naphthalenyl)ethanamine]
COc1ccc(CN[C@H](C)c2ccc(C)cc2)cc1-c1ccsc1 [(1R)-N-((4-(methyloxy)-3-(3-thienyl)phenyl)methyl)-1-(4-methylphenyl)ethanamine]
COc1ccc([C@@H](C)NCc2cccc(-c3ccccc3F)c2)cc1 [(1R)-N-((2′-fluoro-1,1′-biphenyl-3-yl)methyl)-1-(4-(methyloxy)phenyl)ethanamine]
COc1ccc(CN[C@H](C)c2ccc(C)cc2)cc1-c1cccnc1 [(1R)-N-((4-(methyloxy)-3-(3-pyridinyl)phenyl)methyl)-1-(4-methylphenyl)ethanamine]
COc1ccc(CN[C@H](C)c2ccccc2)cc1-c1ccc2oc(C)nc2c1 [(1R)-N-((3-(2-methyl-1,3-benzoxazol-5-yl)-4-(methyloxy)phenyl)methyl)-1-phenylethanamine]
COc1ccc(CN[C@H](C)c2ccccc2)cc1-c1ccc(C(F)(F)F)nc1 [(1R)-N-((4-(methyloxy)-3-(6-(trifluoromethyl)-3-pyridinyl)phenyl)methyl)-1-phenylethanamine]
COc1ccc(CN[C@H](C)c2ccccc2)cc1-c1cccc(C(N)=O)c1 [2′-(methyloxy)-5′-((((1R)-1-phenylethyl)amino)methyl)-1,1′-biphenyl-3-carboxamide]
COc1cccc([C@@H](C)NCc2ccc(F)c(-c3ccc(F)cc3)c2)c1 [(1R)-N-((4′,6-difluoro-1,1′-biphenyl-3-yl)methyl)-1-(3-(methyloxy)phenyl)ethanamine]
